Columns and labels:
Vanilloid receptor [1] = molecular target: T1, Vanilloid receptor (Rattus norvegicus, UniProt Q9ERZ8+Q9WUD2+O35433); assay: In vitro inhibitory concentration was determined against [45Ca2+]- influx in rat DRG neurons; type: functional
Vanilloid receptor [2] = molecular target: T1, Vanilloid receptor; assay: In vitro induction of 45 [Ca2+] influx in rat DRG neurons (ineffective at 30 uM, partial activity); type: functional

With `CCCCCOc1cc(C(C)(C)C)ccc1C/N=C(\S)NCc1ccc(NS(C)(=O)=O)cc1` the IC50 (Vanilloid receptor [1]) was 0.07 µM.
Work on `COc1cc(CC/N=C(\S)NCCc2ccccc2)ccc1O` yielded an IC50 (Vanilloid receptor [1]) of 0.32 µM.
`COc1cc(C(C)(C)C)ccc1C/N=C(\S)NCc1ccc(NS(C)(=O)=O)cc1` gave an IC50 (Vanilloid receptor [1]) of 2.4 µM.
Compound `CC(C)(C)COc1cc(C(C)(C)C)ccc1C/N=C(\S)NCc1ccc(NS(C)(=O)=O)cc1` has an IC50 (Vanilloid receptor [1]) of 0.06 µM.
Compound `CCCCCCOc1cc(C(C)(C)C)ccc1C/N=C(\S)NCc1ccc(NS(C)(=O)=O)cc1` has an IC50 (Vanilloid receptor [1]) of 0.15 µM.
`CCCNCC(=O)N(CCC)CC(=O)N(CCC)CC(=O)O` showed an IC50 (Vanilloid receptor [1]) of 2 µM.
In the case of `CCCCOc1cc(C(C)(C)C)ccc1C/N=C(\S)NCc1ccc(NS(C)(=O)=O)cc1`, the IC50 (Vanilloid receptor [1]) is reported as 0.06 µM.
With `CCCOc1cc(C(C)(C)C)ccc1C/N=C(\S)NCc1ccc(NS(C)(=O)=O)cc1` the IC50 (Vanilloid receptor [1]) was 0.25 µM.
In the case of `CCOc1cc(C(C)(C)C)ccc1C/N=C(\S)NCc1ccc(NS(C)(=O)=O)cc1`, the IC50 (Vanilloid receptor [1]) is reported as 1.1 µM.
`CC(C)(C)c1ccc(C/N=C(\S)NCc2ccc(NS(C)(=O)=O)cc2)c(OCc2ccccc2)c1` gave an IC50 (Vanilloid receptor [1]) of 0.77 µM.
In the case of `CCCCOc1cc(C(C)(C)C)ccc1C/N=C(\S)NCc1ccc(NS(C)(=O)=O)c(F)c1`, the IC50 (Vanilloid receptor [1]) is reported as 0.02 µM and the EC50 (Vanilloid receptor [2]) is reported as “Partially active”.
`COCCOc1cc(C(C)(C)C)ccc1C/N=C(\S)NCc1ccc(NS(C)(=O)=O)cc1` gave an IC50 (Vanilloid receptor [1]) of 0.06 µM.
Compound `N/C(S)=N/N1CCCC1` has an IC50 (Vanilloid receptor [1]) of 3 µM.
`COCOc1cc(C(C)(C)C)ccc1C/N=C(\S)NCc1ccc(NS(C)(=O)=O)cc1` gave an IC50 (Vanilloid receptor [1]) of 0.5 µM.
In the case of `C=C(C)[C@]12C[C@@H](C)[C@@]34O[C@](Cc5ccccc5)(O[C@@H]1[C@@H]3C=C(COC(=O)Cc1cc(I)c(O)c(OC)c1)C[C@]1(O)C(=O)C(C)=C[C@@H]41)O2` [IODORESINIFERATOXIN], the IC50 (Vanilloid receptor [1]) is reported as 4 µM.
In the case of `CC(C)(C)C(=O)OCc1cc(C(C)(C)C)ccc1C/N=C(\S)NCc1ccc(NS(C)(=O)=O)c(F)c1`, the IC50 (Vanilloid receptor [1]) is reported as 0.015 µM and the EC50 (Vanilloid receptor [2]) is reported as “Partially active”.
Compound `CC(C)(C)C(=O)Oc1cc(C(C)(C)C)ccc1C/N=C(\S)NCc1ccc(NS(C)(=O)=O)cc1` has an IC50 (Vanilloid receptor [1]) of 0.22 µM.
`CC(C)Oc1cc(C(C)(C)C)ccc1C/N=C(\S)NCc1ccc(NS(C)(=O)=O)cc1` was tested, and the IC50 (Vanilloid receptor [1]) was 0.35 µM.
`CC(C)(C)COc1cc(C(C)(C)C)ccc1C/N=C(\S)NCc1ccc(NS(C)(=O)=O)c(F)c1` was tested, and the IC50 (Vanilloid receptor [1]) was 0.066 µM and the EC50 (Vanilloid receptor [2]) was “Partially active”.
In the case of `CC(C)(C)c1ccc(CNC(=S)NCc2ccc(NS(C)(=O)=O)c(F)c2)cc1`, the EC50 (Vanilloid receptor [2]) is reported as “Partially active”.
`Cc1cc(CN/C(S)=N/Cc2ccc(NS(C)(=O)=O)cc2)c(COC(=O)C(C)(C)C)cc1C` showed an IC50 (Vanilloid receptor [1]) of 0.07 µM.
For `CC(C)(C)C(=O)OCc1cc(C(C)(C)C)ccc1C/N=C(\S)NCc1ccc(NS(C)(=O)=O)cc1`, the IC50 (Vanilloid receptor [1]) was 0.07 µM.
`NC(=O)N1CCN(c2ccccn2)CC1` was tested, and the IC50 (Vanilloid receptor [1]) was 0.03 µM.
`CC(=O)OCc1cc(C(C)(C)C)ccc1C/N=C(\S)NCc1ccc(NS(C)(=O)=O)cc1` gave an IC50 (Vanilloid receptor [1]) of 0.58 µM.
